From ChEMBL document CHEMBL2448809, “UCSF DeRisi Lab MMV Box Apicoplast Screening”

The compounds below were run on Plasmodium falciparum (assay: MMV: Compounds (1uM) were screened in a 72hr growth assay monitored by flow cytometry both in the presence and absence of supplemental isopentenyl pyrophosphate (IPP) 200uM. Compounds which fail to show anti-malarial activity when chemically rescued by IPP are therefore specific to the apicoplast. The values are expressed as the ratio of the corresponding activity with and without IPP, respectively.).
Assay type: functional, W2
`CCOc1cc(CNC(C)C(O)c2ccccc2)cc(Cl)c1OCC` (stereo not drawn) was tested, and the Ratio was 0.8833. Work on `Cc1cc(NC(=O)c2cccc(C(F)(F)F)c2)n(-c2nc(-c3ccc4c(c3)OCO4)cs2)n1` yielded a Ratio of 0.8908. Compound `COc1cccc(C2(C)Nc3ccccc3-c3nc4ccccc4n32)c1` (stereo not drawn) has a Ratio of 1.163. Compound `CC(C)CNC(=O)c1c(N)n(CCc2ccccc2F)c2nc3ccccc3nc12` has a Ratio of 0.63. `Cc1cccc(-n2ncc3c(O)nc(-n4nc(C)cc4NC(=O)c4cc5ccccc5o4)nc32)c1` gave a Ratio of 0.6055. For `O=C(Nc1ccccc1O)c1ccc(Oc2cccc(C(=O)Nc3ccccc3O)c2)cc1`, the Ratio was 0.75. Work on `Oc1ccccc1CN1CCC2(CCCN(Cc3ccccc3F)C2)C1` (stereo not drawn) yielded a Ratio of 0.9661. `Cl.N=c1n(CCN2CCCCC2)c2ccccc2n1CC(O)c1cccc(Br)c1` (stereo not drawn) was tested, and the Ratio was 0.8955. `COc1cccc(O)c1CN1CCC2(CCCN(Cc3ccc(F)cc3)C2)C1` (stereo not drawn) showed a Ratio of 0.8333. Compound `COc1cccc(Nc2nc(NCCO)c3ccccc3n2)c1.Cl` has a Ratio of 0.7297. `Cc1ccc(-c2cc(C(=O)Nc3ccc(S(=O)(=O)N4CCCCC4)cc3)[nH]n2)c(O)c1` gave a Ratio of 0.875. Work on `COc1ccc(C(=O)Nc2ccc3nc(N4CCCCC4)cc(C)c3c2)cc1OC` yielded a Ratio of 0.7897. `COCCNCC(O)Cn1c2ccc(Cl)cc2c2cc(Cl)ccc21` (stereo not drawn) showed a Ratio of 0.88. `COc1ccc(N2CCN(C(CNC(=O)C3CCCCC3)c3ccc4c(c3)OCO4)CC2)cc1` (stereo not drawn) was tested, and the Ratio was 0.9206. Work on `FC(F)(F)c1ccc(Nc2nnnc3ccccc23)cc1` yielded a Ratio of 1.052. Work on `O=C(NC1CCN(Cc2ccccc2)CC1)c1cc(-c2ccncc2)nc2ccc(Cl)cc12` yielded a Ratio of 0.7749. For `COc1cc2cc(C(=O)Nc3ccccc3)c(N)nc2cc1OC`, the Ratio was 1.031. `COc1cccc(NC(=O)Cn2c(C)c(C#N)c3ccccc32)c1` gave a Ratio of 1.098. `Cn1c(=O)c2cc(C(=O)NCCCN3CCCCCC3)sc2c2ccccc21` gave a Ratio of 1.205. `Cc1[nH]c(-c2ccc(F)cc2)cc1C(=O)NC1CCN(Cc2ccccc2)CC1` showed a Ratio of 0.8906. `COc1ccc(CCN2CCC(CN(C)Cc3cnn(-c4ccccc4)c3)CC2)cc1` gave a Ratio of 0.8571. `O=C(NC(c1ccccc1)c1ccc2cccnc2c1O)c1ccccc1` (stereo not drawn) gave a Ratio of 1.018. `O=C(O)C(=O)O.Oc1ccccc1CN1CCN(C(c2ccccc2)c2ccccc2)CC1` was tested, and the Ratio was 1.068. For `O=C(NC1CCCC1)c1ccc(N2CCC(NCc3cccc(C(F)(F)F)c3)CC2)cc1`, the Ratio was 0.8. For `CCOc1cc(Br)c(C(C)NC(=O)c2cccc(OC)c2)cc1OCC` (stereo not drawn), the Ratio was 0.791. For `CC(C)=CCN1CCC(C(=O)Nc2ccc(-c3nc4ccccc4[nH]3)cc2)CC1`, the Ratio was 0.8533. Work on `CCN(CC)CCn1c(=N)n(CC(O)c2ccc(Cl)c(Cl)c2)c2ccccc21.Cl` (stereo not drawn) yielded a Ratio of 0.9508. For `CCOc1cc(Cl)c(C(C)NC(=O)c2cccc(OC)c2)cc1OCC` (stereo not drawn), the Ratio was 0.9259. Work on `FC(F)(F)c1cccc(Nc2nc(-c3ccccc3)nc3ncccc23)c1` yielded a Ratio of 0.7857. In the case of `CCN1CCN(c2cc(C)c3cc(NC(=O)c4ccc(OC)c(OC)c4)ccc3n2)CC1`, the Ratio is reported as 0.8308. `CC(=O)Nc1nnc(SCc2c(C)cc(C(C)(C)C)cc2C)s1` gave a Ratio of 0.8169. Compound `Cc1ccc(Cl)cc1N1CCN(CCCNC(=O)C2CCN(c3nc4ccccc4[nH]3)CC2)CC1` has a Ratio of 0.814. `COc1ccc(CNC2CCN(c3ccc(NC(=O)c4cccc(Cl)c4)cc3)CC2)cc1OC` was tested, and the Ratio was 1.145. Compound `Cc1ccc(CSCc2ccc(C(=O)NC3CC3)o2)cc1` has a Ratio of 0.8621. `CC(NCc1ccccc1)c1cc(Cl)ccc1O` (stereo not drawn) gave a Ratio of 0.6957. Work on `CN1CCN(c2c3c(c(C#N)c4nc5ccccc5n24)CCC3)CC1` yielded a Ratio of 1.032. `CCOc1ccc(C2N(C)c3ccccc3N2C)cc1` showed a Ratio of 0.8372. Work on `O=C(Nc1ccc(CN2CCOCC2)cc1)c1ccc(-c2ccc(Br)cc2)o1` yielded a Ratio of 0.6519. `CC(=O)NCCc1nc2ccccc2n1Cc1ccc(C(C)C)cc1` was tested, and the Ratio was 1.018. `COc1nc(Nc2ccc(C(C)C)cc2)nc(OC)n1` was tested, and the Ratio was 0.9479. `CCN(CC)CCNc1ncnc2c1[nH]c1ccc(Br)cc12` gave a Ratio of 0.9508. With `CCOc1cccc(C(=O)Nc2ccc(-c3nc4ccccc4[nH]3)cc2)c1` the Ratio was 1.322. With `CN(C)c1ccc(-c2nc3cc(N)ccc3[nH]2)cc1` the Ratio was 1.036. For `Cl.Clc1cc(Br)ccc1-c1ccc(CNCC2CCNCC2)o1`, the Ratio was 1.173. Compound `Cc1c(C)n(Cc2ccc(F)cc2)c2ccc(C(=O)NCc3ccco3)cc12` has a Ratio of 1.212. In the case of `CCN(CC)c1ccc(NC(=O)c2cccs2)cc1`, the Ratio is reported as 1. `CCCC(c1nnnn1C1CCCCC1)N1CCN(C(=O)c2ccco2)CC1.Cl` (stereo not drawn) showed a Ratio of 1.023. For `CC(C)(C)C(=O)Nc1ccc(C(=O)Nc2cccc(-c3nc4ccccc4[nH]3)c2)cc1`, the Ratio was 0.7684. `COc1ccc(-c2nonc2NC(=O)c2cccc(C)c2)cc1OC` was tested, and the Ratio was 1.066. With `COc1cccc(-c2nn(C)c3sc(C(=O)NCCN4CCN(c5ccccc5F)CC4)cc23)c1` the Ratio was 0.7703. `O=C(Nc1ccc(N2CCN(Cc3ccccc3)CC2)cc1)c1cccs1.O=C(O)C(F)(F)F` gave a Ratio of 0.8148. Compound `Cc1ccc(CN2CCC(C(=O)Nc3ccc(-c4cc5ccccc5[nH]4)cc3)CC2)o1` has a Ratio of 0.8636. With `O=C(Nc1ccc(N2CCCCC2)c(Cl)c1)c1ccc(Br)o1` the Ratio was 0.8784. In the case of `Cc1cc(C)c2nc(N3CCC(C(=O)NCCCN4CCC(N5CCCCC5)CC4)CC3)sc2c1`, the Ratio is reported as 0.8033. For `O=C(Nc1ccsc1C(=O)NC1CCCCC1)c1ccc(F)cc1`, the Ratio was 0.9369. `O=C(Nc1cccc(C(F)(F)F)c1)c1cc(Cl)ccc1O` was tested, and the Ratio was 0.9697. For `CC(C)(C)c1ccc(C(=O)Nc2nc3ccccc3s2)cc1`, the Ratio was 0.8302. Work on `CC1CC(C)CN(C(=O)c2ccc(Cl)cc2Cl)C1` (stereo not drawn) yielded a Ratio of 0.6364. Work on `COc1ccccc1CNC(=O)C1c2ccccc2C(=O)N(CC(C)C)C1c1cccs1` (stereo not drawn) yielded a Ratio of 1.038. In the case of `OC(CNC1CCCC1)Cn1c2ccccc2c2ccccc21` (stereo not drawn), the Ratio is reported as 1.151. Work on `COc1ccc(C2N(C)c3ccccc3N2C)cc1` yielded a Ratio of 0.8737. Compound `CCN(CC)c1cc(C)c2cc(NC(=O)c3cccc(OC)c3)ccc2n1` has a Ratio of 1.095. For `CC(C)OCc1cc(CN2CCN(c3cccc(Cl)c3)CC2)c(O)c2ncccc12`, the Ratio was 1.015. For `O=C(Nc1ccc(F)c(Cl)c1)Nc1ccc(Cl)c(Cl)c1`, the Ratio was 1.268. `CCOc1ccc(-c2nc(NC(=O)c3cccc(S(C)(=O)=O)c3)sc2C)cc1` was tested, and the Ratio was 0.4367. For `Clc1ccc2[nH]c3c(NCCCN4CCOCC4)ncnc3c2c1`, the Ratio was 0.9836. Compound `COc1ccccc1N1CCN(C(CNS(=O)(=O)c2ccc(Cl)cc2)c2cccnc2)CC1` (stereo not drawn) has a Ratio of 0.8506. With `CCCc1c(C)nc2ccccc2c1O` the Ratio was 0.9683. `CCOc1c(Cl)cc(CNC(C)C(O)c2ccccc2)cc1OC` (stereo not drawn) gave a Ratio of 1.031. `CCCN(CCC)CCCNC(=O)c1cc2c(-c3ccc(OC)c(OC)c3)nn(C)c2s1` showed a Ratio of 1.186. In the case of `Cc1cc(N2CCN(C3CCCC3)CC2)n2c(nc3ccccc32)c1C#N`, the Ratio is reported as 0.7364. `CN1c2ccccc2N(C)C1c1ccc2c(c1)OCO2` was tested, and the Ratio was 0.7561. Compound `CCCCOc1ccc(C(=O)Nc2cc(C)on2)cc1` has a Ratio of 0.9875. Work on `O=C(NCC1Cc2cccc(-c3ccncc3)c2O1)c1csc2c1CCCC2` (stereo not drawn) yielded a Ratio of 0.6487. For `CCc1ccc(Nc2cc(C)nc3nc(C)nn23)cc1`, the Ratio was 0.9802. `Br.CCN(CC)S(=O)(=O)c1ccc(-c2csc(Nc3ccc(C)c(C)c3)n2)cc1` gave a Ratio of 0.8. `C=C(C)CCC(C)N1CCC(N2CCC(C(=O)NCCc3ccccc3)CC2)CC1` (stereo not drawn) was tested, and the Ratio was 0.756. With `C=CCc1c(C)nc2ccccc2c1O` the Ratio was 0.9595.
